Data reported in patent publication US6838249B2, “Neuroblastoma cell lines expressing the α2δ subunit of calcium channels and methods therefore” (priority 2001, dated 2005).
Read-outs that look alike come from different tables or passages of the source.

Experiments:
[1] = test system: α2δ subunit of calcium channels; conditions: 10 nM [^3H]GBP; for Ki: one-site binding model
IMR32 cells = assay: Differentiation of IMR32 cells with BrdU, density of [^3H]GBP binding sites; format: cell-based, human; conditions: 10 μM BrdU for 10 to 12 days
Method: IMR32 cells, SK-N-MC cells and NG 108 cells as well as cells treated in culture with 10 μM of BrdU for 10 to 12 days were used. Cells were harvested and homogenates were made in HEPES/KOH buffer, pH 7.4. The homogenates were centrifuged for 15 min at 1000×g, and the supernatants were centrifuged at 40000×g for 15 min to obtain cell membranes.

Ki ([1]; read-out: Ki (nM) BrdU, differentiated (BrdU) IMR32 cell membranes) | Ki ([1]; read-out: Ki (nM) Control, undifferentiated (Control) IMR32 cell membranes) | SMILES | inhibition of [^3H]GBP binding to IMR32 cell membranes ([1]; varying concentrations (FIG. 3)) | expression of [^3H]GBP binding sites (IMR32 cells)
30 nM | 39 nM | CSCC[C@H](N)C(=O)O [L-methionine] | dose-dependently inhibited | 
 |  | O=c1[nH]c(=O)n([C@H]2C[C@H](O)[C@@H](CO)O2)cc1Br [BrdU, 5-Bromo-2′-deoxyuridine] |  | increased
